Measured values taken from ChEMBL document CHEMBL1143017, “Structural assignment of poecillastrins B and C, macrolide lactams from the deep-water Caribbean sponge Poecillastra species” (J Nat Prod, 2007).

Assay: Cytotoxicity against human LOX cells
Assay type: cell-based

Compound | IC50 [µg/mL]
COC1/C=C/C=C/CC/C=C/C=C/C(=O)NC(C(O)C(=O)O)C(=O)OC(C(NC(=O)C(C)C(O)CCC(C)C(O)/C(C)=C/C(C)(C)C(O)C(CC(C)C)NC(=O)/C=C/C(C)(C)C(=O)C(C)C(O)C(C)C)C(C)O)C(C)C(O)C/C=C(\C)C(O)C(C)/C=C(\C)C(O)C(C)C(O)CC2CC(C)CC1O2 (configuration not stated) [POECILLASTRIN B] | < 1
COC1/C=C/C=C/CC/C=C/C=C/C(=O)NC(C(O)C(=O)O)C(=O)OC(C(NC(=O)C(C)C(O)CCC(C)C(O)/C(C)=C/C(C)C(O)C(CC(C)C)NC(=O)/C=C/C(C)(C)C(=O)C(C)C(O)C(C)C)C(C)O)C(C)C(O)C/C=C(\C)C(O)C(C)/C=C(\C)C(O)C(C)C(O)CC2CC(C)CC1O2 (configuration not stated) [POECILLASTRIN C] | < 1
